The target in one experiment is T1, TAK1-TAB1 (Homo sapiens, UniProt O43318).
T1 sequence (O43318 with tags, fused parts or gaps limits assumed): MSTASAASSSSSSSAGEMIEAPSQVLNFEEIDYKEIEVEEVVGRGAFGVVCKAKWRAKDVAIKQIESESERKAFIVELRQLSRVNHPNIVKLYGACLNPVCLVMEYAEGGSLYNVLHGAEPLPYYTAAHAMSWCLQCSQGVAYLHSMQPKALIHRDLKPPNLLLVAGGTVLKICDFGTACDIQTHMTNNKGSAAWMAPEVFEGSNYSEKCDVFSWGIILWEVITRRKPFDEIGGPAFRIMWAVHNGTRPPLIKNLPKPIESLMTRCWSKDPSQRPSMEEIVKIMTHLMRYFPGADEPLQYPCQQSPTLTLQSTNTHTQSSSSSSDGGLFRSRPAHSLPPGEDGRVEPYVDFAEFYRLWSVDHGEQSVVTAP
As to the kind of experiment: TAK1-TAB1 binding inhibitory potency (LanthaScreen competitive binding assay, kinase tracer-236). The settings on record: 10 nM TAK1-TAB1, 100 nM kinase tracer-236; read-out: TAK1-Tab Inhibition IC50. An outline of the steps: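 Compounds were tested for TAK1-TAB1 binding in a 384-well LanthaScreen competitive FRET assay. TAK1-TAB1 (10 nM) and Eu-anti-his antibody (2 nM) were preincubated with compound for two hours before adding 100 nM Alexa Fluor 647 kinase tracer-236. The buffer was 20 mM HEPES pH 7.5, 10 mM MgCl2, 0.01% BSA, 0.0005% Tween-20 and 2% DMSO. IC50 came from 4-parameter logistic fits of emission ratio over an 11-point series from 20 μM to 0.34 nM.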

The subject of experiment [1] is IL-6 Production in Human Peripheral Blood Mononuclear Cells (PBMC). The experiment is described as follows: LPS stimulated IL-6 production in PBMC cells. It is filed as cell-based. The settings on record: read-out: IL-6 Production Inhibition IC50.

`CC(C)(O)c1cccc(-c2cnc3[nH]cc(/C=C/C(N)=O)c3c2)c1` [Example 246, (E)-3-(5-(3-(2-hydroxypropan-2-yl)phenyl)-1H-pyrrolo[2,3-b]pyridin-3-yl)acrylamide]: the half-maximal inhibitory concentration (IC50) (on TAK1-TAB1; in experiment [1]) was no more than 1 µM throughout.

Source of the values: patent publication US9499551B2, “Substituted pyrrolo[2,3-b]pyridines for treating cancer or inflammatory diseases” (Confluence Life Sciences, Inc., priority 2014, dated 2016).
